Reference: patent US20080261986A1, “PHARMACEUTICAL FORMULATIONS FOR IONTOPHORETIC DELIVERY OF AN ANTI-FUNGAL DRUG” (priority 2007, published 2008)
Counter-ions that a name gives are not always drawn.

Assays:
T. rubrum = settings: quoted in the T. rubrum agar study, organism not given; cited from earlier work
[1] = Saturated solubility of terbinafine HCl in various solvents; assay type: physicochemical; settings: thermodynamic from solid, n = 3
Description: In order to establish a suitable receiver fluid for use in permeation studies, the saturated solubility of terbinafine HCl at room temperature was determined in various solvents such as, water, phosphate buffered saline (PBS), PBS with 5% Tween-80 (PBS-T), citrate buffer and sodium phosphate buffer. The drug was added to each of the solvents until visual saturation was obtained and the mixtures were left at controlled temperature (19° C.) for 24 hours. The saturated drug solution was filtered and solubility of the drug was determined by UV spectrophotometer.

[2] = Effect of Tween-20 and Tween-80 on terbinafine HCl solubility in water and PBS; assay type: physicochemical; settings: thermodynamic from solid, n = 3
Description: The influence of Tween-20 and Tween-80 on terbinafine HCl solubility in water and PBS was determined. The drug was added to each of the solvents until visual saturation was obtained, then left at controlled temperature (19° C.) or 24 hours. The saturated solutions were filtered and drug solubility in the filtrate was determined by UV spectrophotometer.

[3] = Permeation through and loading in human nail, Franz diffusion cell; assay type: in vitro ADME
Description: Permeation experiments were conducted using human nails to further validate iontophoretic delivery. In these experiments intact full thickness whole cadaver finger nail plates (˜0.5-0.7 mm thickness) were trimmed to appropriate disks and used. Prehydrated (in saline for 60 min) nail disks were sandwiched between the donor and receptor compartments of Franz diffusion cell (FDC) using a nail adaptor to conform to the curvature of the nail. Terbinafine hydrochloride (10 mg/mL) in water and Tween80 was used in the donor compartment, and acidified water used in the receptor. Current density of 0.5 mA/cm^2 was applied for 1 hr after which the receptor levels were measured for permeation of terbinafine hydrochloride through the nail using similar methods as described in Example 3B. Additionally, nail disks were analyzed (after 1 hr of iontophoresis or passive delivery) for drug in the nail using similar extraction methods as described as follows. […]
Permeation experiments were conducted using human nails as described in Example 4 but the effect of current duration was investigated. Current density of 0.5 mA/cm^2 was applied for either 15, 30, 45, or 60 minutes and the receptor levels analyzed for amount of terbinafine hydrochloride that permeated through the nail (μg/cm^2) immediately afterwards and compared to passively delivered nails.

[4] = Permeation through hoof membrane in Franz diffusion cell, passive versus iontophoretic; assay type: in vitro ADME, bovine
Description: The permeation experiments were conducted to optimize the parameters for iontophoretically-assisted terbinafine HCl into the hoof membrane. In these experiments bovine hoof membranes (˜0.250 mm thickness) were used as a model for human nail plates. The prehydrated (in water for 60 min) hoof membrane was sandwiched between the donor and receptor compartments of Franz diffusion cell (FDC). The receptor compartment was filled with receiver fluid (5 ml of PBS-5% Tween 80 (T80), water or water-T80 as indicated) and the set up was visually examined for any leaks by inverting the FDC. Two ml of drug solutions (5-10 mg/ml) or suspensions (5-10 mg/ml) were placed in the donor compartment of the Franz diffusion cell. […] Aliquots (50 μl) of the receptor phase were taken every 15 minutes for the first two hours and every hour subsequently for 8 h. A last aliquot was taken at 24 h. Some experiments were conducted for longer in which case aliquots were taken daily. […] Control passive experiments were conducted in the same way except for the application of electric current. Data were expressed as means ±standard deviations. All experiments were performed in triplicate. Drug permeation was measured as described above for up to 24 hours (n=3). For iontophoretic permeation, current density of 1 mA cm^2 was applied for 1 hr using carbon electrodes. […]

[5] = assay type: in vitro ADME; settings: 4 %, pH 3
Description: Nails soaked in normal saline for one hour were mounted on a nail adapter and sandwiched between the two chambers of the FDC. […] Anodal iontophoresis was carried out at 0.5 mA/cm^2 for 1 hr using a custom made constant DC power supply. For comparison, passive delivery of the same formulation was performed for 1 hr. For drug release studies, nails loaded with drug were washed to remove the surface drug and were mounted on FDCs. The receiver compartment was filled with pH 3 water. The donor chamber was empty but was covered with parafilm. The receiver compartment medium was sampled daily and the amount of drug released from the drug loaded nails was measured until the cumulative release attained a plateau. Drug delivered into the nail via iontophoresis released terbinafine HCl in a sustained release fashion over approximately 3 weeks at levels far greater than passively loaded nails which reached a plateau only after a few days (FIG. 11). The amount of drug released from iontophoretically loaded nails represented approximately 47% of the initial drug loaded. Undelivered drug was confined to the upper layers of the nail and was hypothesized to be either entrapped or keratin bound. […] Actual release may be slower in vivo since the nail is not in contact with a fluid reservoir with enhanced drug solubility and infinite sink conditions.

Compound: CN(C/C=C/C#CC(C)(C)C)Cc1cccc2ccccc12 [terbinafine HCl, (E)-N-(6,6-dimethyl-2-hepten-4-ynyl)-N-methyl-1-naphthylmethamine hydrochloride]
- MIC (T. rubrum): 4 ng/mL
- solubility at 24 h ([1]; aqueous buffer, Citrate buffer, pH 5, 19° C.): 1810 µg/mL
- solubility at 24 h ([1]; aqueous buffer, PBS, pH 7.4, 19° C.): 1320 µg/mL
- solubility at 24 h ([1]; aqueous with cosolvent or surfactant or cyclodextrin, PBS-T (PBS with 5% Tween-80), pH 6.8, 19° C.): 6020 µg/mL
- solubility at 24 h ([1]; Distilled water, pH 5.8, 19° C.): 6370 µg/mL
- solubility at 24 h ([2]; aqueous buffer, PBS, 19° C.): 1320 µg/mL
- solubility at 24 h ([2]; aqueous with cosolvent or surfactant or cyclodextrin, PBS and 5% Tween-20, 19° C.): 5220 ± 20 µg/mL
- solubility at 24 h ([2]; aqueous with cosolvent or surfactant or cyclodextrin, PBS and 5% Tween-80, 19° C.): 6530 ± 60 µg/mL
- solubility at 24 h ([2]; aqueous with cosolvent or surfactant or cyclodextrin, Water and 5% Tween-20, 19° C.): 10600 ± 660 µg/mL
- solubility at 24 h ([2]; aqueous with cosolvent or surfactant or cyclodextrin, Water and 5% Tween-80, 19° C.): 11500 ± 640 µg/mL
- solubility at 24 h ([2]; Distilled water, 19° C.): 6370 ± 310 µg/mL
- permeation through the nail and loading in the nail, iontophoresis versus passive ([3]; 10 mg/mL in water and Tween80, 0.5 mA/cm^2 for 1 hr): increases permeation through the nail and loading in the nail compared to passive delivery
- iontophoretic permeation through the nail versus passive ([3]; 0.5 mA/cm^2 for 15, 30, 45, or 60 minutes): greater than passively delivered drug for all current durations tested
- time at which iontophoretic drug permeation leveled off ([4]; bovine, 10 mg/ml): about 8 hrs
- drug concentration in the receptor phase ([4]; passive delivery, at 24 h, water-T80 and 10 mg/ml drug solution, average of replicates): 20 ng/mL
- amount of drug released as share of the initial drug loaded [5]: approximately 47%
- duration of sustained release from iontophoretically loaded nails [5]: approximately 3 weeks
